Measured values: ChEMBL document CHEMBL4507276 (2021)

What was measured:
[1] = biological target: 5-hydroxytryptamine receptor 1E (Homo sapiens) (UniProt P28566); details: Compound concentration 10.0 uM
[2] = biological target: T1, Ephrin type-B receptor 1 (Homo sapiens) (UniProt P54762); assay: EPHB1 Invitrogen selectivity data (BI); details: Compound concentration 3.0 uM
T1 sequence (whole entry): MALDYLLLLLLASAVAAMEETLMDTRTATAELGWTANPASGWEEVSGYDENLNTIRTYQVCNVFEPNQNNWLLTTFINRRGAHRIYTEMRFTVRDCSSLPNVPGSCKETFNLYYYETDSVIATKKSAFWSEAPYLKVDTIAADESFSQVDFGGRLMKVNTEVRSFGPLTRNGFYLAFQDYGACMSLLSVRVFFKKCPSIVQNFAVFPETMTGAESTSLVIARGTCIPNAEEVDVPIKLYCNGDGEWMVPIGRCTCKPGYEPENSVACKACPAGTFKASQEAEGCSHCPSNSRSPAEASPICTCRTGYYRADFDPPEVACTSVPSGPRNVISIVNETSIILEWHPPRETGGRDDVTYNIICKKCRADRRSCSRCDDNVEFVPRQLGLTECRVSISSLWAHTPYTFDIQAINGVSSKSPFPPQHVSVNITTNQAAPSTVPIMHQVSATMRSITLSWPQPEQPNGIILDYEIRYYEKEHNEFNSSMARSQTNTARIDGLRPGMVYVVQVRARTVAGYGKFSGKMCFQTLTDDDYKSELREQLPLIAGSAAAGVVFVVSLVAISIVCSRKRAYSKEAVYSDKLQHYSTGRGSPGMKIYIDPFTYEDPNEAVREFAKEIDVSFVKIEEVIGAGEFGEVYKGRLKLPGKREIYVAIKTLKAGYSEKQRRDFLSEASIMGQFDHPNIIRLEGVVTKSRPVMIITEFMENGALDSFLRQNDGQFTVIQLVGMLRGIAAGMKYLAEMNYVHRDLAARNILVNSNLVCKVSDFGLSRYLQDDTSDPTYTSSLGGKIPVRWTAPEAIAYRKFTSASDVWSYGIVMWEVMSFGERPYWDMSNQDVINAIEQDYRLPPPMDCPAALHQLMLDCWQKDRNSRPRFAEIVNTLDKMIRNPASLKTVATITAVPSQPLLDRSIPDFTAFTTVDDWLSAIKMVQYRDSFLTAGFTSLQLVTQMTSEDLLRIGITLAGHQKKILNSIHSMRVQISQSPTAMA

[3] = biological target: Casein kinase I isoform alpha (Homo sapiens) (UniProt P48729); assay: CSNK1A1 Invitrogen selectivity data (BI); details: Compound concentration 3.0 uM
[4] = biological target: T2, Dual specificity mitogen-activated protein kinase kinase 3 (Homo sapiens) (UniProt P46734); assay: MAP2K3 Invitrogen selectivity data (BI); details: Compound concentration 3.0 uM
T2 sequence (whole entry): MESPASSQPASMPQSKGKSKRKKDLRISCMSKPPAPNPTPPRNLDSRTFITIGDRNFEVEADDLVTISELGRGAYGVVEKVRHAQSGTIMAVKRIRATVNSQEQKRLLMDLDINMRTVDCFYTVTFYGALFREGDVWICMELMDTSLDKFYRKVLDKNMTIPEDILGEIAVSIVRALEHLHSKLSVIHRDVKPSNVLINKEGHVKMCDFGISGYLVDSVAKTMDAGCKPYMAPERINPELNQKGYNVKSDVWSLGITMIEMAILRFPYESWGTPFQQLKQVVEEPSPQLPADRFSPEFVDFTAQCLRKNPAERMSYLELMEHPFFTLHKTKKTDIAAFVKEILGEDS

[5] = biological target: Serine/threonine-protein kinase N1 (Homo sapiens) (UniProt Q16512); assay: PKN1 Invitrogen selectivity data (BI); details: Compound concentration 3.0 uM
[6] = biological target: Mitogen-activated protein kinase 8 (Homo sapiens) (UniProt P45983); assay: MAPK8 Invitrogen selectivity data (BI); details: Compound concentration 3.0 uM
[7] = biological target: Substance-K receptor (Homo sapiens) (UniProt P21452); assay: NK2/H Cerep selectivity data (BI); details: Compound concentration 20.0 uM
[8] = biological target: SRSF protein kinase 2 (Homo sapiens) (UniProt P78362); assay: SRPK2 Invitrogen selectivity data (BI); details: Compound concentration 3.0 uM
[9] = biological target: Homeodomain-interacting protein kinase 2 (Homo sapiens) (UniProt Q9H2X6); assay: HIPK2 Invitrogen selectivity data (BI); details: Compound concentration 3.0 uM
[10] = biological target: T3, Tyrosine-protein kinase TXK (Homo sapiens) (UniProt P42681); assay: TXK Invitrogen selectivity data (BI); details: Compound concentration 3.0 uM
T3 sequence (whole entry): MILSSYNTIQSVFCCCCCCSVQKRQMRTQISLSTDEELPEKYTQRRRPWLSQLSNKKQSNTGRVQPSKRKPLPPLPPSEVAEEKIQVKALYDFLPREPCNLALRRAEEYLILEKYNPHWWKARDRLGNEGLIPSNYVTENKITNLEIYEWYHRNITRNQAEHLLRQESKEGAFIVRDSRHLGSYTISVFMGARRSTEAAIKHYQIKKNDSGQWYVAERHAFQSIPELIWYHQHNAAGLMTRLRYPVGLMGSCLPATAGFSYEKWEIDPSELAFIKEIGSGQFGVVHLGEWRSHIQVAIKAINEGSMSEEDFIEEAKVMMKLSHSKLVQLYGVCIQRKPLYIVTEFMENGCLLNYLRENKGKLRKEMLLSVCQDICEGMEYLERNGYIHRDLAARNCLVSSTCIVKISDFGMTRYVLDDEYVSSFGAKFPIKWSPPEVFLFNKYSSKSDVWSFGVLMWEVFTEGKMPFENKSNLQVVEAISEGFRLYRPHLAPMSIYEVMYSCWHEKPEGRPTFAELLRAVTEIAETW

[11] = biological target: Glycine receptor subunit alpha-1 (Rattus norvegicus) (UniProt P07727); assay: GLYSTRYANTAG Cerep selectivity data (BI); details: filed as antagonist, Compound concentration 20.0 uM
[12] = biological target: RAC-gamma serine/threonine-protein kinase (Homo sapiens) (UniProt Q9Y243); assay: AKT3 Invitrogen selectivity data (BI); details: Compound concentration 3.0 uM
[13] = biological target: T4, Aurora kinase C (Homo sapiens) (UniProt Q9UQB9); assay: AURKC Invitrogen selectivity data (BI); details: Compound concentration 3.0 uM
T4 sequence (whole entry): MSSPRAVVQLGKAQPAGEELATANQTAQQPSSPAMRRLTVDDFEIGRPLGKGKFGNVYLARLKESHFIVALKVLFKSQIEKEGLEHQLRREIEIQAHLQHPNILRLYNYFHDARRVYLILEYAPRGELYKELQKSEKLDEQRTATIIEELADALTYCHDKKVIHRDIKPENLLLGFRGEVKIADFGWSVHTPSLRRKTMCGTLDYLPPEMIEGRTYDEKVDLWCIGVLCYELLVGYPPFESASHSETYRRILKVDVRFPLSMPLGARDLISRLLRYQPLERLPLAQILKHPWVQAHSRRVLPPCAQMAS

[14] = biological target: 5-hydroxytryptamine receptor 2B (Homo sapiens) (UniProt P41595); assay: 5HT2B/H AG Cerep selectivity data (BI); details: filed as agonist, Compound concentration 20.0 uM
[15] = biological target: Serine/threonine-protein kinase pim-1 (Homo sapiens) (UniProt P11309); assay: PIM1 Invitrogen selectivity data (BI); details: Compound concentration 3.0 uM
[16] = biological target: Beta-3 adrenergic receptor (Homo sapiens) (UniProt P13945); assay: BETA3/HU Cerep selectivity data (BI); details: filed as antagonist, Compound concentration 20.0 uM
[17] = biological target: Platelet-activating factor receptor (Homo sapiens) (UniProt P25105); assay: PAF/H Eurofins-Panlabs selectivity data (BI); details: Compound concentration 10.0 uM
Chain of Platelet-activating factor receptor (Homo sapiens) (P25105 whole entry): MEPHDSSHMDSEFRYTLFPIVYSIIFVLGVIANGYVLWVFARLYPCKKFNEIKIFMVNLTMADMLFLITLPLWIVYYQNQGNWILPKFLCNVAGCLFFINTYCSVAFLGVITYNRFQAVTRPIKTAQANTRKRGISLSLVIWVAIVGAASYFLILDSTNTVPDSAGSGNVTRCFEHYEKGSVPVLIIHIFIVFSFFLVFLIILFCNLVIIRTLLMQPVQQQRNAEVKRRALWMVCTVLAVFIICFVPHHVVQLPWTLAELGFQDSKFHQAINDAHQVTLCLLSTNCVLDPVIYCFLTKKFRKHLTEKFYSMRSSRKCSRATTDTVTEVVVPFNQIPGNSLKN

Chain of Serine/threonine-protein kinase N1 (Homo sapiens) (Q16512 2-942 limits assumed): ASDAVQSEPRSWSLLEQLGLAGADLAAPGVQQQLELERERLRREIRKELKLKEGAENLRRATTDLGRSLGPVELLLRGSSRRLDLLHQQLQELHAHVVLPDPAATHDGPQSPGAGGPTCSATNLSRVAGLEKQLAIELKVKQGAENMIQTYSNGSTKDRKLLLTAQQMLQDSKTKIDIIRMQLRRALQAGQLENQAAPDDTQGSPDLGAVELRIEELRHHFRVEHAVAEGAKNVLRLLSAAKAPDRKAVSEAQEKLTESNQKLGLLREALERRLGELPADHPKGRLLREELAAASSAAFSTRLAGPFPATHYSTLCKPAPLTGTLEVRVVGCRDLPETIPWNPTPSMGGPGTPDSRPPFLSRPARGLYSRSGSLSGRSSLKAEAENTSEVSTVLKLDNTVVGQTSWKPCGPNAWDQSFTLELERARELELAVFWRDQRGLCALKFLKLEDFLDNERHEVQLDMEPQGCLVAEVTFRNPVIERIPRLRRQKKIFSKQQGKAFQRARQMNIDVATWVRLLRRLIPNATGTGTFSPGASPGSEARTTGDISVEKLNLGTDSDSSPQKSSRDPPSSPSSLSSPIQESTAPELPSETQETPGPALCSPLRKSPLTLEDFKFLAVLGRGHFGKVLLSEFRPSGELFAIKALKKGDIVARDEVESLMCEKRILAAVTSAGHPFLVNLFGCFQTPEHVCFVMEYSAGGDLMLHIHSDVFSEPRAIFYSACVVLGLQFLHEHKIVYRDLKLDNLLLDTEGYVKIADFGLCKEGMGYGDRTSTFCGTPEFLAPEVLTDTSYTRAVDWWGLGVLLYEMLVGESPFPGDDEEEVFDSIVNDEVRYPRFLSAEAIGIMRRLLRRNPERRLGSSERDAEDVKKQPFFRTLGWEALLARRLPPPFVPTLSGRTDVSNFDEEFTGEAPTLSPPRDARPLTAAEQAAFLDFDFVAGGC
Chain of RAC-gamma serine/threonine-protein kinase (Homo sapiens) (Q9Y243 whole entry): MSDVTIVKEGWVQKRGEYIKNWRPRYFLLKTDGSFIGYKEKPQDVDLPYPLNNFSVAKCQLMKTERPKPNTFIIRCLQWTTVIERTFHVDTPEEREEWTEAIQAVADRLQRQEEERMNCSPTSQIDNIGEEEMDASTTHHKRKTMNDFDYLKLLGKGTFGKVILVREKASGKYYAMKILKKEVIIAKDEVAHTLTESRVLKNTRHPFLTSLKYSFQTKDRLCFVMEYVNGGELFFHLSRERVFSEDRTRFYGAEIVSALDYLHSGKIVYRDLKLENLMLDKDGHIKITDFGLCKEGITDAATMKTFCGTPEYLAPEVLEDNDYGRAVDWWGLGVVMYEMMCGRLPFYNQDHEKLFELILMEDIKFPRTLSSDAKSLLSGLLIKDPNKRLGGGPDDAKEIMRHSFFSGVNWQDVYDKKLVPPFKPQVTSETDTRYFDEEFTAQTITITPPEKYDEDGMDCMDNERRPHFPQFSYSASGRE
Chain of 5-hydroxytryptamine receptor 1E (Homo sapiens) (P28566 whole entry): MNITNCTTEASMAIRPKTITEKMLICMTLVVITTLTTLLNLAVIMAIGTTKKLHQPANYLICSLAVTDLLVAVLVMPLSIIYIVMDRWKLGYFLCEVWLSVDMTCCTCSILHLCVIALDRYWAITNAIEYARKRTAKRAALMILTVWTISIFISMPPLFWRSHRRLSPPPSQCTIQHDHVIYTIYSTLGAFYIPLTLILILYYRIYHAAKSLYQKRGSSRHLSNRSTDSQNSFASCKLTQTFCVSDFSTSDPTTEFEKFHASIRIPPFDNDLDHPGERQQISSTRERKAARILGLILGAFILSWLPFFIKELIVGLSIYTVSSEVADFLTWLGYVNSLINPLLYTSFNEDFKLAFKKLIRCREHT
Chain of Mitogen-activated protein kinase 8 (Homo sapiens) (P45983 whole entry): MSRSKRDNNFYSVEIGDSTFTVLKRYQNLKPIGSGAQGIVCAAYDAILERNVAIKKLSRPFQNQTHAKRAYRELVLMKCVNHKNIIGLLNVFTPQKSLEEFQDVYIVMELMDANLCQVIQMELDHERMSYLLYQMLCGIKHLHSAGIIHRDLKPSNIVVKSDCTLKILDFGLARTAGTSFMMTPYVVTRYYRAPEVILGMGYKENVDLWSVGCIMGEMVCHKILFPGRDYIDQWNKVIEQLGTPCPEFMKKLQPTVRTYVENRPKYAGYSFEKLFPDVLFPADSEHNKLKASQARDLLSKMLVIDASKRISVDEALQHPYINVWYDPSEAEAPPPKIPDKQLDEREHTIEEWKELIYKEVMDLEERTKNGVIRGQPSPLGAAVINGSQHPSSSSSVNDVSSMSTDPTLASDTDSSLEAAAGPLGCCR
Chain of Glycine receptor subunit alpha-1 (Rattus norvegicus) (P07727 whole entry): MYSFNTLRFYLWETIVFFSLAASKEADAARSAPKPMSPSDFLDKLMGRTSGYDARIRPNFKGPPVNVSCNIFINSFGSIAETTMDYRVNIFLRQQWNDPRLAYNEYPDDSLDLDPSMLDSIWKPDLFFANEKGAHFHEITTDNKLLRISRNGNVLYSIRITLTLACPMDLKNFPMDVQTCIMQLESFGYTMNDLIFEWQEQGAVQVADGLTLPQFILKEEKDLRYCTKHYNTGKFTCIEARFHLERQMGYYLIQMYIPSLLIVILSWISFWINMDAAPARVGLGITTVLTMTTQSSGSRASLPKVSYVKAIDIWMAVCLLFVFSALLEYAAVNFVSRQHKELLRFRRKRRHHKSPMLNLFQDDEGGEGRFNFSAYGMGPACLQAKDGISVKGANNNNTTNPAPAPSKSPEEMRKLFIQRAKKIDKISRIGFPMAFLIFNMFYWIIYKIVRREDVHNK
Chain of SRSF protein kinase 2 (Homo sapiens) (P78362 whole entry, looked up): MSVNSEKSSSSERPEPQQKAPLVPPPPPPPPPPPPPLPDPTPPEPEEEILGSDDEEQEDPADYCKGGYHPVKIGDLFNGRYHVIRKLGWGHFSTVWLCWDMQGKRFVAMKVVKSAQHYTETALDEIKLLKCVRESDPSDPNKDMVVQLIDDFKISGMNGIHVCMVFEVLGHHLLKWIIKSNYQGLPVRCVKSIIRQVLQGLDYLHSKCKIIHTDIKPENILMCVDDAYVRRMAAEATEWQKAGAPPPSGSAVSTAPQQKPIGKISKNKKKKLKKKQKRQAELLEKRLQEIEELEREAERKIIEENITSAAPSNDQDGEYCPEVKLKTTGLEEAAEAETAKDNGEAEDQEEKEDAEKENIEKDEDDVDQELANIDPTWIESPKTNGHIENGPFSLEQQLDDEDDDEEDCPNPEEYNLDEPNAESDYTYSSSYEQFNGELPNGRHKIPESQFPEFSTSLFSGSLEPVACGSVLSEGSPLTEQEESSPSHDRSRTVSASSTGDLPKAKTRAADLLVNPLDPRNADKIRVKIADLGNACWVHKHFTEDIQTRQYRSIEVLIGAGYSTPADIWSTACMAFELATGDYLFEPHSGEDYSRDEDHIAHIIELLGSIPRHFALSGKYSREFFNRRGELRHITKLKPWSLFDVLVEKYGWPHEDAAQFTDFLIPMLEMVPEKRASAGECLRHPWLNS
Chain of Substance-K receptor (Homo sapiens) (P21452 whole entry): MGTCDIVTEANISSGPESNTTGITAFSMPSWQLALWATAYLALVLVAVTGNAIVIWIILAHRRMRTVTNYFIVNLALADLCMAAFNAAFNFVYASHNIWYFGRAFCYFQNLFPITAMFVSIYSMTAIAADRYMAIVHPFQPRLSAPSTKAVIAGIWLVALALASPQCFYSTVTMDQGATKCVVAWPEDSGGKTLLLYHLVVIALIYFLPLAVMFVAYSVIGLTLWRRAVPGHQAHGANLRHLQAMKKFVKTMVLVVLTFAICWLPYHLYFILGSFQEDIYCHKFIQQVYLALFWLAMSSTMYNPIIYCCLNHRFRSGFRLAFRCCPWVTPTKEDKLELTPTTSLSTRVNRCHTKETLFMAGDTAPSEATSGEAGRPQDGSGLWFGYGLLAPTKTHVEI
Chain of Casein kinase I isoform alpha (Homo sapiens) (P48729 2-337 limits assumed): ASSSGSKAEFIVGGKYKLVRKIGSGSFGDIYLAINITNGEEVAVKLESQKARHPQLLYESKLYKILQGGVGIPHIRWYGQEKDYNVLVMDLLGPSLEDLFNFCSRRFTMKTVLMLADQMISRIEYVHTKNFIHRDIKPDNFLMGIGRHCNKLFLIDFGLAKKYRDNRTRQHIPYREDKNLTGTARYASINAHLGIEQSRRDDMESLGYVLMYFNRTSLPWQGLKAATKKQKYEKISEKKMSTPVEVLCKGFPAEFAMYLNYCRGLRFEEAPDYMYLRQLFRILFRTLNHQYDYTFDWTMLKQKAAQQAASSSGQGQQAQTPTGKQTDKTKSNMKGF
Chain of Serine/threonine-protein kinase pim-1 (Homo sapiens) (P11309 whole entry, looked up): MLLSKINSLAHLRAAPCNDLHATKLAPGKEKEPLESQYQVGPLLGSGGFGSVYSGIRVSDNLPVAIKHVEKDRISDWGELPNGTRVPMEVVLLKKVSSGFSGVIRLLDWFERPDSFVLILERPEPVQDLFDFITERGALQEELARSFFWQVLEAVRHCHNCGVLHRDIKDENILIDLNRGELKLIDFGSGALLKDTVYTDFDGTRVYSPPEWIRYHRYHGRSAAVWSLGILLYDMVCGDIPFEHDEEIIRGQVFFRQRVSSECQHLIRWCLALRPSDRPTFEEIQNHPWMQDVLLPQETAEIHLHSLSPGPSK

CN(C)C(=O)Cn1cc(-c2nc(C3(c4ccc(-c5cnc(N)nc5)cc4)CC3)no2)cn1 [BI 0153]
inactive: inhibition [1] -7.33%

CN(C)C(=O)Cn1cc(-c2nc([C@@](C)(c3ccc(-c4cnc(N)nc4)cc3)C3CC3)no2)cn1 [BI 665915]
inactive: residual activity [2] 93% | residual activity [3] 96% | residual activity [4] 101% | residual activity [5] 98.5% | residual activity [6] 93% | residual activity [7] 102% | residual activity [8] 98% | residual activity [9] 96% | residual activity [10] 95% | residual activity [11] 118% | residual activity [12] 102% | residual activity [13] 93% | residual activity [14] 103% | residual activity [15] 97.5% | residual activity [16] 86% | residual activity [17] 71%
